In the Kinase Knowledgebase extract (Sharma et al. 2016):

Each compound was assayed against MAPK14 (human) (UniProt Q16539) (assay: Inhibition of MAPK14 Kinase Activity).
MAPK14 (human), sequence (Q16539 whole entry, looked up): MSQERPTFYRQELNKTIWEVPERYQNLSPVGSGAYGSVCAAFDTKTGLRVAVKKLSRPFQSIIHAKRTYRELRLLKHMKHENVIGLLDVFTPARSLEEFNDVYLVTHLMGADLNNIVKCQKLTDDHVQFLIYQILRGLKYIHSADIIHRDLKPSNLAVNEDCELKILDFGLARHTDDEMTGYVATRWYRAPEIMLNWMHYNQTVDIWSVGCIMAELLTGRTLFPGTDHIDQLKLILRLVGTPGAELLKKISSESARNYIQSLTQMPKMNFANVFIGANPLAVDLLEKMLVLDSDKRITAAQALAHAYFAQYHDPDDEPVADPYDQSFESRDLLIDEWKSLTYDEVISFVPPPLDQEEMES

Compound	IC50
COc1cccc(CCNC(=O)c2csc(-c3sc(C)nc3-c3ccc(F)cc3)n2)c1	≤ 1 µM
CC(C)NC(=O)c1csc(-c2oc(CN3CCN(C(=O)c4ccc(-c5ccc(O)cc5)cc4)CC3)nc2-c2ccc(F)cc2)n1	≤ 1 µM
Cc1ccc(S(=O)(=O)NCCNCc2nc(-c3ccc(F)cc3)c(-c3nc(C(=O)NC(C)C)cs3)o2)cc1	≤ 1 µM
Cc1ccc(C(=O)N2CCN(Cc3nc(-c4ccc(F)cc4)c(-c4nc(C(=O)NC(C)C)cs4)o3)CC2)c(C)c1	≤ 1 µM
CC(C)NC(=O)c1csc(-c2oc(CNC(=O)CCc3nc4ccccc4[nH]3)nc2-c2ccc(F)cc2)n1	≤ 1 µM
Cc1nc(-c2ccc(F)cc2)c(-c2nc(C(=O)NC3CCCCC3C)cs2)s1 (centres undefined)	≤ 1 µM
C#CCNC(=O)c1csc(-c2c(-c3ccc(F)cc3)n[nH]c2C2CCN(C(=O)CO)CC2)n1	≤ 1 µM
CC(C)NC(=O)c1csc(-c2oc(CNC(=O)c3c(F)cccc3F)nc2-c2ccc(F)cc2)n1	≤ 1 µM
Cc1nc(-c2ccc(F)cc2)c(-c2nc(C(=O)NC(C)C)cs2)[nH]1	≤ 1 µM
CC(C)NC(=O)c1csc(-c2oc(CNC(=O)c3cc(F)c(F)cc3[N+](=O)[O-])nc2-c2ccc(F)cc2)n1	≤ 1 µM
CCN(CC)CCNC(=O)c1csc(-c2sc(C)nc2-c2ccc(F)cc2)n1	≤ 1 µM
CC(C)NC(=O)c1csc(-c2oc(CN3CCN(C(=O)c4ccc(Oc5ccccc5)cc4)CC3)nc2-c2ccc(F)cc2)n1	≤ 1 µM
Cc1cccc(N2CCN(C(=O)c3csc(-c4sc(C)nc4-c4ccc(F)cc4)n3)CC2C)c1 (centres undefined)	≤ 1 µM
COc1ccc2cc(C(C)C(=O)NCc3nc(-c4ccc(F)cc4)c(-c4nc(C(=O)NC(C)C)cs4)o3)ccc2c1 (centres undefined)	≤ 1 µM
CC(C)NC(=O)c1csc(-c2oc(CNCc3ccccc3OC(F)(F)F)nc2-c2ccc(F)cc2)n1	≤ 1 µM
Cc1onc(-c2ccc(F)cc2)c1-c1nc(C(=O)NC(C)C)cs1	≤ 1 µM
CC(C)NC(=O)c1csc(-c2c(-c3ccccc3)n[nH]c2C2CCN(C(=O)c3ccc(Cl)c([N+](=O)[O-])c3)CC2)n1	≤ 1 µM
Cc1onc(-c2ccc(F)cc2)c1-c1ccn(C(=O)NC(C)C)n1	≤ 1 µM
COc1ccccc1CC(=O)N1CCN(Cc2nc(-c3ccc(F)cc3)c(-c3nc(C(=O)NC(C)C)cs3)o2)CC1	≤ 1 µM
Cc1nc(-c2ccc(F)cc2)c(-c2nc(C(=O)NCc3ccc4c(c3)OCO4)cs2)s1	≤ 1 µM
CCNC(=O)c1csc(-c2c(-c3ccc(F)cc3)n[nH]c2C)n1	≤ 1 µM
Cc1nc(-c2ccc(F)cc2)c(-c2nc(C(=O)NCCc3ccccc3F)cs2)s1	≤ 1 µM
Cc1nc(-c2ccc(F)cc2)c(-c2nc(C(=O)NCc3ccco3)cs2)s1	≤ 1 µM
CC(C)NC(=O)c1csc(-c2oc(CNC(=O)c3cc(Cl)ccc3[N+](=O)[O-])nc2-c2ccc(F)cc2)n1	≤ 1 µM
Cc1nc(-c2ccc(F)cc2)c(-c2nc(C(=O)NCc3ccc(F)cc3F)cs2)s1	≤ 1 µM
O=C(NCC1CC1)c1csc(-c2c(-c3ccc(F)cc3)n[nH]c2C2CCNCC2)n1	≤ 1 µM

Compound	IC50
Cc1nc(-c2ccc(F)cc2)c(-c2nc(C(=O)Nc3ccc(N(C)C)cc3)cs2)s1	≤ 1 µM
CC(C)NC(=O)c1csc(-c2oc(CNC(=O)c3ccc(Cl)cc3[N+](=O)[O-])nc2-c2ccc(F)cc2)n1	≤ 1 µM
Cc1onc(-c2ccc(Cl)cc2)c1-c1ccn(C(=O)NC2CCCC2)n1	≤ 1 µM
CC(C)NC(=O)c1csc(-c2oc(CN3CCN(C(=O)c4cn(C)cn4)CC3)nc2-c2ccc(F)cc2)n1	≤ 1 µM
CC(C)NC(=O)c1csc(-c2oc(CNC(=O)c3cc(O)ccc3O)nc2-c2ccc(F)cc2)n1	≤ 1 µM
CC(C)NC(=O)c1csc(-c2oc(CN3CCN(C(=O)c4ccc(Cl)cc4O)CC3)nc2-c2ccc(F)cc2)n1	≤ 1 µM
CC(C)NC(=O)c1csc(-c2oc(CNC(=O)c3cccc(O)c3)nc2-c2ccc(F)cc2)n1	≤ 1 µM
COc1ccc(CNC(=O)c2csc(-c3sc(C)nc3-c3ccc(F)cc3)n2)cc1O	≤ 1 µM
Cc1nc(-c2ccc(F)cc2)c(-c2nc(C(=O)NCCc3ccc4c(c3)OCO4)cs2)s1	≤ 1 µM
CC(C)NC(=O)c1csc(-c2oc(CNC(=O)C=Cc3ccccc3O)nc2-c2ccc(F)cc2)n1	≤ 1 µM
COCCOCC(=O)N1CCC(c2[nH]nc(-c3ccc(F)cc3)c2-c2nc(C(=O)NC(C)C)cs2)CC1	≤ 1 µM
COc1cc(OC)c(C(=O)NCc2nc(-c3ccc(F)cc3)c(-c3nc(C(=O)NC(C)C)cs3)o2)c(OC)c1	≤ 1 µM
CC(C)NC(=O)c1csc(-c2c(-c3ccc(F)cc3)noc2C2CCNCC2)n1	≤ 1 µM
Cc1ccc(S(=O)(=O)NCCNC(=O)c2csc(-c3sc(C)nc3-c3ccc(F)cc3)n2)cc1	≤ 1 µM
CC(C)NC(=O)c1csc(-c2oc(CNC(=O)c3cc([N+](=O)[O-])ccc3O)nc2-c2ccc(F)cc2)n1	≤ 1 µM
CCN(CC)c1ccc(C(=O)NCc2nc(-c3ccc(F)cc3)c(-c3nc(C(=O)NC(C)C)cs3)o2)cc1	≤ 1 µM
CC(=O)Nc1ccc(NC(=O)c2csc(-c3sc(C)nc3-c3ccc(F)cc3)n2)cc1	≤ 1 µM
CC(C)NC(=O)c1csc(-c2oc(CNC(=O)C3CCCCC3)nc2-c2ccc(F)cc2)n1	≤ 1 µM
CC(C)NC(=O)c1csc(-c2oc(CNC(=O)C(Cc3ccccc3)NC(=O)OC(C)(C)C)nc2-c2ccc(F)cc2)n1 (centres undefined)	≤ 1 µM
Cc1ccc(CNC(=O)c2csc(-c3sc(C)nc3-c3ccc(F)cc3)n2)cc1	≤ 1 µM
Cc1onc(-c2ccc(Cl)cc2)c1-c1ccn(C(=O)NCCO)n1	≤ 1 µM
CC(=O)NCc1nc(-c2ccc(F)cc2)c(-c2nc(C(=O)NC(C)C)cs2)[nH]1	≤ 1 µM
CC1=NN(c2ccc(C(=O)NCc3nc(-c4ccc(F)cc4)c(-c4nc(C(=O)NC(C)C)cs4)o3)cc2)C(=O)C1	≤ 1 µM
Cc1nc(-c2ccc(F)cc2)c(-c2nc(C(=O)NCc3ccccc3)cs2)s1	≤ 1 µM
CC(C)NC(=O)c1csc(-c2oc(CN3CCN(C(=O)Cc4ccc(Br)cc4)CC3)nc2-c2ccc(F)cc2)n1	≤ 1 µM

More lines, now with the values ahead:

IC50	Compound
≤ 1 µM	C#CCNC(=O)c1csc(-c2sc(C)nc2-c2ccc(F)cc2)n1
≤ 1 µM	COc1ccc(C(=O)N2CCN(Cc3nc(-c4ccc(F)cc4)c(-c4nc(C(=O)NC(C)C)cs4)o3)CC2)c(OC)c1
≤ 1 µM	Cc1nc(-c2ccc(F)cc2)c(-c2nc(C(=O)NCc3ccncc3)cs2)s1
≤ 1 µM	Cc1ccccc1C(=O)N1CCC(c2[nH]nc(-c3ccc(F)cc3)c2-c2nc(C(=O)NC(C)C)cs2)CC1
≤ 1 µM	CC(C)NC(=O)c1csc(-c2oc(CNC(=O)c3cccnc3Cl)nc2-c2ccc(F)cc2)n1
≤ 1 µM	CC(=O)NCC(=O)N1CCC(c2[nH]nc(-c3ccc(F)cc3)c2-c2nc(C(=O)NC(C)C)cs2)CC1
≤ 1 µM	CCC(CO)NC(=O)c1csc(-c2c(-c3ccc(F)cc3)n[nH]c2C2CCNCC2)n1 (centres undefined)
≤ 1 µM	CCOc1ccccc1CNC(=O)c1csc(-c2sc(C)nc2-c2ccc(F)cc2)n1
≤ 1 µM	N#CCNC(=O)c1csc(-c2c(-c3ccc(F)cc3)n[nH]c2C2CCNCC2)n1
≤ 1 µM	CC(C)NC(=O)c1csc(-c2c(-c3ccc(F)cc3)n[nH]c2C2CCN(C(=O)c3cncc(Br)c3)CC2)n1
≤ 1 µM	O=C(NCc1cccnc1)c1csc(-c2c(-c3ccc(F)cc3)n[nH]c2C2CCNCC2)n1
≤ 1 µM	CNC(=O)c1csc(-c2c(-c3ccc(F)cc3)n[nH]c2C2CCNCC2)n1
≤ 1 µM	CC(C)NC(=O)c1csc(-c2[nH]c(CN3CCOCC3)nc2-c2ccc(F)cc2)n1
≤ 1 µM	Cc1nc(-c2ccc(F)cc2)c(-c2nc(C(=O)Nc3ccc4c(c3)OCO4)cs2)s1
≤ 1 µM	Cc1nc(-c2ccc(F)cc2)c(-c2nc(C(=O)NCC3CCCCC3)cs2)s1
≤ 1 µM	CC(C)NC(=O)c1csc(-c2oc(CNC(=O)c3cc(O)ccc3[N+](=O)[O-])nc2-c2ccc(F)cc2)n1
≤ 1 µM	CC(C)NC(=O)c1csc(-c2oc(CNC(=O)c3ccc(C#N)cc3)nc2-c2ccc(F)cc2)n1
≤ 1 µM	CC(C)NC(=O)c1csc(-c2c(-c3ccc(F)cc3)ncn2C2CCNCC2)n1
≤ 1 µM	CC(C)NC(=O)c1csc(-c2c(-c3ccc(F)cc3)ncn2C2CCN(C(=O)CO)CC2)n1

IC50	Compound
≤ 1 µM	CC(C)NC(=O)c1csc(-c2oc(CNC(=O)c3ccc(C=O)cc3)nc2-c2ccc(F)cc2)n1
≤ 1 µM	CC(C)NC(=O)c1csc(-c2c(-c3ccc(F)cc3)noc2CNC(=O)c2ccc([N+](=O)[O-])cc2Cl)n1
≤ 1 µM	CCCCOc1ccc(C(=O)N2CCN(Cc3nc(-c4ccc(F)cc4)c(-c4nc(C(=O)NC(C)C)cs4)o3)CC2)cc1
≤ 1 µM	CC(C)NC(=O)c1csc(-c2oc(CN3CCN(C(=O)c4ccc5cccc(O)c5n4)CC3)nc2-c2ccc(F)cc2)n1
≤ 1 µM	Cc1cc(C(=O)NCc2nc(-c3ccc(F)cc3)c(-c3nc(C(=O)NC(C)C)cs3)o2)n[nH]1
≤ 1 µM	COc1ccc(Br)c(C(=O)NCc2nc(-c3ccc(F)cc3)c(-c3nc(C(=O)NC(C)C)cs3)o2)c1
≤ 1 µM	CC(C)NC(=O)c1csc(-c2oc(CNC(=O)c3ccc4cc(O)ccc4c3)nc2-c2ccc(F)cc2)n1
≤ 1 µM	CC(C)NC(=O)c1csc(-c2oc(CNC(=O)C(Cc3ccc(O)cc3)NC(=O)OC(C)(C)C)nc2-c2ccc(F)cc2)n1 (centres undefined)
≤ 1 µM	COc1ccc(CNC(=O)c2csc(-c3sc(C)nc3-c3ccc(F)cc3)n2)cc1OC
≤ 1 µM	CC(C)NC(=O)c1csc(-c2oc(CN3CCN(C(=O)c4ccccc4C=O)CC3)nc2-c2ccc(F)cc2)n1
≤ 1 µM	Cc1nc(-c2ccc(F)cc2)c(-c2nc(C(=O)NCc3ccc(C(F)(F)F)cc3)cs2)s1
≤ 1 µM	CC(C)NC(=O)c1csc(-c2c(-c3ccc(F)cc3)noc2CNC(=O)C=Cc2ccccc2F)n1
≤ 1 µM	CC(C)NC(=O)c1csc(-c2oc(CNC(=O)c3c(F)c(F)c(F)c(F)c3F)nc2-c2ccc(F)cc2)n1
≤ 1 µM	CC(C)NC(=O)c1csc(-c2oc(CN3CCN(C(=O)C=O)CC3)nc2-c2ccc(F)cc2)n1
≤ 1 µM	Cc1nc(-c2ccc(F)cc2)c(-c2nc(C(=O)NCCC(C)C)cs2)s1
≤ 1 µM	COCCNC(=O)c1csc(-c2sc(C)nc2-c2ccc(F)cc2)n1
≤ 1 µM	CC(C)NC(=O)c1csc(-c2oc(CN3CCOCC3)nc2-c2ccc(F)cc2)n1
≤ 1 µM	CC(C)NC(=O)c1csc(-c2c(-c3ccc(F)cc3)n[nH]c2C2CCNCC2)n1
≤ 1 µM	Cc1nc(-c2ccc(F)cc2)c(-c2nc(C(=O)NCc3cccnc3)cs2)s1
